This is an account of results in patent publication US7659278B2, “Use of low molecular weight compounds for preparing a medicament useful in treating mutant p53 mediated diseases” (Aprea AB, priority 2002, dated 2010).

Like-named read-outs stand apart in the source and are kept apart here.

The test system of test [1] is Saos-2-His-273 osteosarcoma cells. The test can be described thus: WST-1 growth inhibition by structural analogues, Saos-2-His-273 cells with or without doxycycline. To be noted: for IC50: Homo sapiens, 48 h, WST-1; for R Saos-2His273: ratio IC50p53null/IC50mtp53. The format is cell-based, human. On the procedure:
(§1) After 12h cells were treated with analogues and incubated with compounds for 48 h. Then WST-1 cell proliferating reagent was added to each well and cell survival was estimated by reading absorbance at 450 nm by ELISA reader. The effect of structural analogues on cell growth was tested using different concentrations of the compounds, ranging from 0.1; 1; 5; 10 and 25 μM. After that curves of growth inhibition were generated based on a rational function Y=(b+cx)/1+ax by using Microcal Origin software. The coefficients (a,b,c) of the equation were determined by employing Levenberg-Marquardt algorithm.
(§2) The specificity of each compound was determined by calculation of ratio IC50p53null/IC50mtp53. Ratios equal to 1 or less are indicating non-specific activity.

Test [2] has as its system H1299-His-175 lung adenocarcinoma cells. The test can be described thus: WST-1 growth inhibition by structural analogues, H1299-His-175 cells with or without doxycycline. To be noted: for IC50: Homo sapiens, 48 h, WST-1; for R H1299-His175: ratio IC50p53null/IC50mtp53. The format is cell-based, human. On the procedure:
as §1, §2

Setting [3] is: Dox+ (p53 null), read-out: IC50 Saos-2His273 Dox+.
[4] abbreviates: Dox− (mutant p53 expressed), read-out: IC50 Saos-2His273 Dox−.
Where [5] appears, read: Dox+ (p53 null), read-out: IC50 H1299-His175 Dox+.
The mark [6] stands for this setting: Dox− (mutant p53 expressed), read-out: IC50 H1299-His175 Dox−.

As to `O=C1C2CCN(CC2)C1CN1C=NC2C(Cl)=NC(Cl)=NC21` (stereo not drawn) [2-(2,6-dichloro-9-methylenepurine)-3-quinuclidinone], the IC50 in test [1] (setting [3]) is 6.2 µM; in test [1] (setting [4]) it was 2.54 µM; in test [2] (setting [5]) it was 4.9 µM; in test [2] (setting [6]), 3.2 µM. In test [1], the “R Saos-2His273” value was determined as 2.44. The “R H1299-His175” value in test [2] is reported as 1.53.

Take `Cc1cc2ncn(CC3C(=O)C4CCN3CC4)c2cc1C` (stereo not drawn) [2-(5,6-dimethyl-benzimidazole-1-methylene)-3-quinuclidinone]: the IC50 in test [1] (setting [3]) is 9.24 µM; in test [1] (setting [4]) it was 4 µM; in test [2] (setting [5]) it was 7.1 µM; in test [2] (setting [6]), 4.75 µM. Moreover, in test [1], the “R Saos-2His273” value is given as 2.31. Also, the “R H1299-His175” value in test [2] came out at 1.51.

Regarding `COc1ncnc2c1ncn2CC1C(=O)C2CCN1CC2` (stereo not drawn) [2-(6-methoxypurine-9-methylene)-3-quinuclidinone], the IC50 worked out at 26 µM in test [1] (setting [3]), 13.7 µM in test [1] (setting [4]), 23.2 µM in test [2] (setting [5]) and 15.5 µM in test [2] (setting [6]). Moreover, the “R Saos-2His273” value in test [1] came to 1.9. The “R H1299-His175” value in test [2] was 1.5.

Regarding `Cn1c(=O)c2c([nH]c(=O)n2CC2C(=O)C3CCN2CC3)n(C)c1=O` (stereo not drawn) [2-(7-methylene-1,3-dimethyluric acid)-3-quinuclidinone], the IC50 in test [1] (setting [3]) turned out to be 5.51 µM; in test [1] (setting [4]), 2.74 µM; in test [2] (setting [5]), 5.2 µM; in test [2] (setting [6]), 4.1 µM. Also, the “R Saos-2His273” value in test [1] is recorded as 2.01. In test [2], the “R H1299-His175” value stood at 1.26.

In the case of `Nc1ncnc2nnn(CC3C(=O)C4CCN3CC4)c12` (stereo not drawn) [2-(8-azaadenine-7-methylene)-3-quinuclidinone], the IC50 in test [1] (setting [3]) is 7.27 µM; in test [1] (setting [4]) it was 2.79 µM; in test [2] (setting [5]) it was 4.2 µM; in test [2] (setting [6]), 3.3 µM. In test [1], the “R Saos-2His273” value is listed as 2.61. In addition, the “R H1299-His175” value in test [2] is 1.27.

Consider `C=Cc1nc2ccccc2c(=O)[nH]1` [2-ethylene-4(3H)-quinazolinone], for which the IC50 in test [1] (setting [3]) was determined as 5.05 µM; in test [1] (setting [4]), 3.97 µM; in test [2] (setting [5]) it was 3.9 µM; in test [2] (setting [6]), 1.4 µM. Also, in test [1], the “R Saos-2His273” value is on record as 1.27. Besides, the “R H1299-His175” value in test [2] worked out at 2.8.

As to `CN1C(=O)C=CC1=O` [N-methylmaleimide], the IC50 came out at 6.45 µM in test [1] (setting [3]), 4.04 µM in test [1] (setting [4]), 5.4 µM in test [2] (setting [5]) and 2.9 µM in test [2] (setting [6]). In addition, in test [1], the “R Saos-2His273” value is reported as 1.6. Also, the “R H1299-His175” value in test [2] was determined as 1.86.

As for `O=C1C=CC(=O)N1` [maleimide], the IC50 turned out to be 7.59 µM in test [1] (setting [3]), 3.37 µM in test [1] (setting [4]), 5.2 µM in test [2] (setting [5]) and 3 µM in test [2] (setting [6]). In addition, in test [1], the “R Saos-2His273” value worked out at 2.25. Also, in test [2], the “R H1299-His175” value was 1.73.
